{
  "source": "patent US20180178031A1",
  "about": "“DENTAL DEVICE AND PHOTODYNAMIC THERAPEUTIC SYSTEM USING SAME” (priority 2016, published 2018)",
  "key": {"[1]": {"system": "gram positive (G (+)) bacteria (Streptococcus mutans, Streptococcus sobrinus)", "assay": "photodynamic therapy bacterial disinfection assay in vitro, G (+) bacteria", "assay_type": "cell-based", "conditions": "photosensitizer plus infrared laser ray 808 nanometers, irradiating about 5 minutes, in vitro (FIG. 8)", "text": "(§1) One group assay represents the different bacterial disinfection by using the photodynamic therapy method in vitro with a specific irradiated wavelength of the light, and the other group assay represents the different bacterial disinfection by using the photodynamic therapy method in vitro with a specific compound X and the specific irradiated wavelength of the light. […] The light is infrared laser ray. The specific irradiated wavelength of the infrared laser ray of is 808 nanometers. The specific compound X is a photosensitizer. The photosensitizer is the indocyanine green dye. The period of irradiating the bacteria is about 5 minutes. The bacteria include gram positive (G (+)) bacteria and gram negative (G (−)) bacteria. The G (+) bacteria include a Streptococcus mutans (S. mutans) and a Streptococcus sobrinus (S. sobrinus). The G (−) bacteria include an Aggregatibacter actinomycetemcomitans (A. actinomycetemcomitans), a Fusobacterium nucleatum (F. nucleatum), and a Porphyromonas gingivalis (P. gingivalis)."}, "[2]": {"system": "gram negative (G (−)) bacteria (Aggregatibacter actinomycetemcomitans, Fusobacterium nucleatum, Porphyromonas gingivalis)", "assay": "photodynamic therapy bacterial disinfection assay in vitro, G (−) bacteria", "assay_type": "cell-based", "conditions": "photosensitizer plus infrared laser ray 808 nanometers, irradiating about 5 minutes, in vitro (FIG. 8)", "text": "as §1"}},
  "data": [
    {"smiles": "CC1(C)C(/C=C/C=C/C=C/C=C2\\N(CCCCS(=O)(=O)O)c3ccc4ccccc4c3C2(C)C)=[N+](CCCCS(=O)(=O)[O-])c2ccc3ccccc3c21", "note": "[compound X, indocyanine green]", "values": [
      {"measurement": "percentage growth rate of the bacteria", "setting": "[1]", "value": "zero"},
      {"measurement": "percentage growth rate of the bacteria", "setting": "[2]", "value": "less than 20%"}
    ]}
  ]
}
